Experimental data from patent US8946507B2, “Method of selectively producing male or female sterile plants” (priority 2002, dated 2015).

Assays:
[1] = tested on: Nicotiana tabacum var. Samsun (transgenic, D-amino acid oxidase under female floral promoter); assay: Conditional female sterility of transgenic tobacco expressing D-amino acid oxidase in female floral tissue, treated with D-amino acids; format: in vivo; conditions: for seed production after treatment: foliar spray usually 0.25-20 kg/ha, root drench or 10-200 mM solution into buds, prior to or during early flower formation; for viable pollen production after treatment: same treatment conditions as for seed production
Experimental: Tobacco leaf discs are transformed with the recombinant binary vectors using methods similar to those described in Horsch et al (1985) Science, 227, 1229-1231 Many variations of the method may be used. The binary vector can be transformed into, for example, Agrobacterium tumefaciens strain LBA 4404 using the freeze thaw method of transformation. Tobacco transformation and whole plant regeneration is performed using Nicotiana tabacum var. Samsun according to protocols described by Draper et al (Plant Genetic Transformation, Blackwell Sci. Pub. 1989). Transformation events are selected on MS-media containing kanamycin or other suitable antibiotic. The presence of integrated transgenes is confirmed by PCR. Plants are regenerated and allowed to reach maturity and selfed on to produce seed. Northern and/or Western analysis is used to confirm tissue-specific expression of the D-amino acid oxidase genes. […] Seeds of the T1 generation are planted out. Once plantlets have grown to a sufficient size they are tested by PCR for the presence of transgene. PCR positive plants are transferred to the greenhouse. […] A subset of these (putatively) conditionally sterile plants are treated with D-phosphinothricin or D-alanine or D leucine or D asparagine or D methionine or D-aspartate or D-glutamate in various amounts and at varying growth stages. […] For example these amino acids are pure D enantiomers or, alternatively, are DL racemates. For example, they are applied as a foliar spray, prior to or during the early stages of flower formation, at rates usually between 0.25 and 20 kg/ha. Amino acids which may crystallise out of solution on the leaves following foliar application may be redissolved and remobilised for leaf uptake by further applications of water as a spray mist. Amino acids are, for example, also applied as a root drench and optionally, further applied as ˜50 ul of a 10-200 mM solution flooded directly into the buds of emerging florets. Pollen from the treated plants is collected and viability is tested. […] Control plants are both transgenic and non-transgenic and are grown under identical conditions and under an identical regime of physical treatments except that treatment solutions are either water or an equivalent concentration of pure L-amino acid.

[2] = tested on: mutant forms of R. gracilis D amino acid oxidase; assay: Oxygen electrode assay, control experiments with pure enantiomers; format: biochemical, Rhodotorula gracilis; conditions: rate relative to DL phosphinothricin, depending on concentration
Experimental: Approximately 7 g wet weight of cells is washed in water. The cells are resuspended in an equal volume of 50 mM/Mops/KOH buffer at pH 7.0 containing 2 mM EDTA, 2 mM DTT and 0.01 mM FAD. Cells are evenly suspended using a glass homogeniser and then disrupted using a one shot head in the Constant Systems (BudBrooke Rd, Warwick U.K.) Basic Z cell disrupter at 13500 psi. The crude extract is kept cold (˜4° C.) centrifuged at 30,000 gav for 1 h and the pellet discarded. Some of the extract protein is run out on an SDS PAGE gel stained with Coomassie Blue and, through side by side comparison with similarly prepared extracts of cells containing only ‘empty’ pET vector it is estimated that 2-50% of the total soluble protein in the extract is D-amino acid oxidase. Some of the extract protein is exchanged into 50 mM Mops/KOH buffer at pH 7.0 containing 0.01 mM FAD. This is diluted with the same buffer in a standard oxygen electrode cell (calibrated at 25° C. between zero and a saturated concentration of oxygen). Optionally, the D-amino acid oxiadse is further purified using ion-exchange, phenyl sepharose, fractional ammonium sulphate precipitation and gel filtration. Assays, at 25° C., are started by addition of a 200 mM solution of the ammonium salt of DL phosphinothricin to the diluted enzyme. […] Rates of oxygen consumption (after substraction of any drift in the bases line) are measured. […]

[3] = target: T1, M213R (arginine replacement for methionine) mutant form of R. gracilis D amino acid oxidase (Rhodotorula toruloides, UniProt P80324, M213R); assay: Oxygen electrode assay of D-amino acid oxidase activity, M213R mutant, crude E. coli extract; format: biochemical; conditions: 25° C., 50 mM Mops/KOH pH 7.0, 0.01 mM FAD; ammonium salt of DL phosphinothricin; estimated enzyme purity in extract 35+/-15% of total protein
T1 construct: made in house; host or cells: E. coli BL21 DE3 (Novagen pET 24A, T7 promoter)
Excerpt: (§1) Additionally a series of particular DNA sequences encoding particularly targeted D-amino acid oxidase enzymes are generated. In particular, genes encoding Rhodotorula gracilis D amino acid oxidase with an arginine, serine, cysteine, lysine, asparagine or alanine replacing the methionine at position 213 and/or a histidine, serine, cysteine, asparagine or alanine replacing the tyrosine at position 238. The methods used are the same as described above except that, rather than a mixture of oligonucleotides, individual oligonucleotide pairs are designed and used to effect each single or double amino acid change. Each resulting mutant D-amino acid oxidase coding sequence is cloned for (untagged) expression behind the T7 promoter in Novagen pET 24A and transformed into E. coli BL21 DE3. The cells are grown in a 1.0 l fermenter in LCM50 medium supplemented with 100 ug/ml kanamycin, induced for expression with 1 mM IPTG and harvested by low-speed centrifugation.
(§2) Approximately 7 g wet weight of cells is washed in water. The cells are resuspended in an equal volume of 50 mM/Mops/KOH buffer at pH 7.0 containing 2 mM EDTA, 2 mM DTT and 0.01 mM FAD. […] Rates of oxygen consumption (after substraction of any drift in the bases line) are measured. […]

[4] = target: T2, M213S (serine replacement for methionine) mutant form of R. gracilis D amino acid oxidase (Rhodotorula toruloides, UniProt P80324, M213S); assay: Oxygen electrode assay of D-amino acid oxidase activity, M213S mutant, crude E. coli extract; format: biochemical; conditions: 25° C., 50 mM Mops/KOH pH 7.0, 0.01 mM FAD; ammonium salt of DL phosphinothricin; estimated enzyme purity in extract 35+/-15% of total protein
T2 construct: made in house; host or cells: E. coli BL21 DE3 (Novagen pET 24A, T7 promoter)
Excerpt: as §1, §2

[5] = tested on: Nicotiana tabacum (transgenic, stig 1 D-amino acid oxidase and plastocyanin/PAT); assay: Transgenic tobacco (stig1 D-amino acid oxidase M213R plus plastocyanin promoter PAT) sprayed with DL phosphinothricin; format: in vivo
Excerpt: In one variant of the method, the amino acid applied is racemic DL phosphinothricin. In this case, the DNA construct used for transformation comprises, in addition to the DNA sequence encoding a D-amino acid oxidase under operable expression control of a tissue specific female floral promoter region such as ‘stig 1’, also a DNA sequence (EMBL: A02774) a ‘PAT’ gene under operable control of a promoter region such as the region 5′ of the translational start of the plastocyanin gene of the Pisum sativum plastocyanin gene (EMBL accession number X16082). For example, the construct is the same as depicted in FIG. 1 except that the DNA sequence encoding D-amino acid oxidase is site-specifically mutated so that the M213R form of the enzyme is encoded. The plastocyanin promoter region provides for preferential expression in the green tissues of the plant. […] Thus, in this variant of the example, the non-phytotoxic substance D phosphinothricin is applied in its least costly and most readily available form as the commercial herbicide DL phosphinothricin racemate.

[6] = tested on: tobacco plants (transgenic, TA 29 D-amino acid oxidase and plastocyanin/PAT); assay: Transgenic tobacco (TA 29 D-amino acid oxidase plus plastocyanin promoter PAT) sprayed with DL phosphinothricin; format: in vivo; conditions: spray, rates between 250 g/ha and 5 kg/ha
Excerpt: Analagous to example 1, in one variant of the example, the amino acid applied is racemic DL phosphinothricin. In this case the DNA construct used for transformation comprises, in addition to the DNA sequence encoding a D-amino acid oxidase under operable expression control of a tissue specific male floral promoter region such as ‘TA 29’, also a DNA sequence encoding a phosphinothricin N-acetyl transferase gene such as the ‘PAT’ gene under operable control of a promoter region such as that from the plastocyanin gene (in this case the region from the Pisum sativum plastocyanin gene).

[7] = tested on: wheat containing a PAT gene under barley plastocyanin promoter region; assay: Reproductive tolerance of wheat containing PAT gene under barley plastocyanin promoter to DL phosphinothricin; format: in vivo; conditions: rates up of at least 2 kg/ha
Excerpt: The current invention provides a method of overcoming the problem of enabling the use of a cheap commercial herbicide, DL phosphinothricin, as both weed control and hybridising agent in the production of hybrid cereals and which method, furthermore, provides resultant hybrid cereals or rice in which DL phosphinothricin (or L phosphinothricin) can be safely used for weed control without substantial loss of yield. As a yet further benefit, selfed seed from the F1 generation which may later arise as volunteers in subsequent crops will be easier to manage since they, themselves, will generally be sterile if sprayed with controlling amounts of DL phosphinothricin. The same will hold for the progeny of pollen outcrossing from the F1 plants to weeds (e.g. red rice) or other cereals. The current invention provides genes and enzymes that convert a non-phytotoxic component, D-phosphinothricin, of a commercial herbicide formulation DL phosphinothricin, into the active L form. The PAT gene which converts L-phosphinothricin to N-acetyl L-phosphinithricin is known already and is used commercially to provide tolerance to DL phosphinothricin in crops. […]

[8] = spray, rates between 250 g/ha and 5 kg/ha

## C[C@@H](N)C(=O)O [D alanine]
[1]
  seed production after treatment: relatively little or no seed
  viable pollen production after treatment: near normal levels of viable pollen

## NC(=O)C[C@@H](N)C(=O)O [D asparagine]
[1]
  seed production after treatment: relatively little or no seed
  viable pollen production after treatment: near normal levels of viable pollen

## N[C@H](CC(=O)O)C(=O)O [D aspartate]
[1]
  seed production after treatment: relatively little or no seed
  viable pollen production after treatment: near normal levels of viable pollen

## N[C@H](CCC(=O)O)C(=O)O [D glutamate]
[1]
  seed production after treatment: relatively little or no seed
  viable pollen production after treatment: near normal levels of viable pollen

## CC(C)C[C@@H](N)C(=O)O [D leucine]
[1]
  seed production after treatment: relatively little or no seed
  viable pollen production after treatment: near normal levels of viable pollen

## CSCC[C@@H](N)C(=O)O [D methionine]
[1]
  seed production after treatment: relatively little or no seed
  viable pollen production after treatment: near normal levels of viable pollen

## CP(=O)(O)CC[C@@H](N)C(=O)O [D-phosphinothricin]
[2]
  oxidation of pure enantiomer in control experiments: up to twice the rate that the DL is
[1]
  seed production after treatment: relatively little or no seed
  viable pollen production after treatment: near normal levels of viable pollen

## CP(=O)(O)CCC(N)C(=O)O (stereo not drawn) [DL phosphinothricin]
[3]
  rate of oxidation (oxygen consumption): ~14 nmol/min/mg of protein of crude extract
[4]
  rate of oxidation (oxygen consumption): ~4 nmol/min/mg of protein of crude extract
[5]; no heterologous D-amino acid oxidase co-expressed in floral tissues
  yield of plastocyanin/PAT plants without D to L converting activity in floral tissues: no significant loss of yield
[5]; rates in excess of 2 kg/ha
  reproductive tolerance to the herbicide of plants with plastocyanin promoter/PAT gene: substantially complete reproductive tolerance
[5]; [8]
  female fertility of treated plants: conditionally female sterile
  male fertility of treated plants: normal or near-normal male fertility
  visible damage of treated plants: not visibly damaged
[6]
  female fertility of treated plants: normal or near-normal female fertility
  male fertility of treated plants: conditionally male sterile
  visible damage of treated plants: not visibly damaged
[7]
  reproductive tolerance to application: substantially reproductively tolerant

## CP(=O)(O)CC[C@H](N)C(=O)O [L-form, L-phosphinothricin, reference compound]
[2]
  oxidation of pure enantiomer in control experiments: not oxidised at all
